Drawing on the NIST ThermoML archive (doi:10.1021/je200872n), this text covers mass density, viscosity and refractive index for six compounds.

Numbers after ± are expanded uncertainties.

A short description of data set [1]: mn = molality of the nth substance listed, in mol/kg. Particulars: 298.15 K, 101 kPa, Liquid; for mass density: Vibrating tube method; for viscosity: Capillary tube (Ostwald / Ubbelohde) method.
The conditions of data set [2]: 298.15 K, Liquid.
The nature of data set [3]: refractive index (Na D-line) (dimensionless). Particulars: 298.15 K; 101.33 kPa; Liquid; Standard Abbe refractometry.

As for `CCC[n+]1ccn(C)c1.[Br-]` [1-methyl-3-propylimidazolium bromide] + CN(C)C=O, the mass density – broadly, the mass of a sample divided by its volume – in data set [1] (m1 = 0.03) was 946.19 ± 0.46 kg/m3; in data set [1] (m1 = 0.0789) it was 949.63 ± 0.46 kg/m3; in data set [1] (m1 = 0.122), 952.52 ± 0.46 kg/m3.

Regarding `CCCCn1cc[n+](C)c1.[Br-]` [1-butyl-3-methylimidazolium bromide] + CN(C)C=O, the mass density is on record as 951.01 ± 0.46 kg/m3 in data set [1] (m1 = 0.1012), 954.4 ± 0.46 kg/m3 in data set [1] (m1 = 0.1527) and 957.2 ± 0.46 kg/m3 in data set [1] (m1 = 0.197).

For the compound `CCCCCn1cc[n+](C)c1.[Br-]` [1-pentyl-3-methylimidazolium bromide] + CN(C)C=O, the mass density is given as 947.47 ± 0.46 kg/m3 in data set [1] (m1 = 0.026), 949.26 ± 0.46 kg/m3 in data set [1] (m1 = 0.0508) and 950.79 ± 0.46 kg/m3 in data set [1] (m1 = 0.0747).

Regarding `CN(C)C=O` [dimethylformamide], the mass density in data set [2] (101 kPa, Vibrating tube method) amounted to 944 ± 0.46 kg/m3. In data set [2] (101.33 kPa, Capillary tube (Ostwald / Ubbelohde) method), the viscosity (commonly the internal friction of a fluid under shear) is on record as 0.805 ± 0.008 mPa·s. The refractive index (in general, the speed of light in vacuum divided by its phase velocity in the sample) in data set [3] was determined as 1.4281 ± 0.0004.

Turning to `Oc1ccccc1C=Nc1ccccc1N=Cc1ccccc1O` [2,2'-[1,2-phenylenebis(nitrilomethylidyne)]bis-phenol] + CN(C)C=O, the viscosity in data set [1] (m1 = 0.01) was 0.802 ± 0.008 mPa·s; in data set [1] (m1 = 0.0302), 0.818 ± 0.008 mPa·s; in data set [1] (m1 = 0.0505), 0.833 ± 0.008 mPa·s; in data set [1] (m1 = 0.0698) it was 0.847 ± 0.008 mPa·s; in data set [1] (m1 = 0.0851), 0.859 ± 0.008 mPa·s; in data set [1] (m1 = 0.1098), 0.878 ± 0.008 mPa·s. For the same compound, the viscosity was found to be 0.89 ± 0.008 mPa·s in data set [1] (m1 = 0.1268), 0.905 ± 0.008 mPa·s in data set [1] (m1 = 0.1507) and 0.919 ± 0.008 mPa·s in data set [1] (m1 = 0.1705). For the same compound, the mass density is given as 946.01 ± 0.46 kg/m3 in data set [1] (m1 = 0.0295); 947.47 ± 0.46 kg/m3 in data set [1] (m1 = 0.051); 948.75 ± 0.46 kg/m3 in data set [1] (m1 = 0.0697); 950.08 ± 0.46 kg/m3 in data set [1] (m1 = 0.0894); 951.51 ± 0.46 kg/m3 in data set [1] (m1 = 0.1106); 952.82 ± 0.46 kg/m3 in data set [1] (m1 = 0.1299). Moreover, the mass density was determined as 953.94 ± 0.46 kg/m3 in data set [1] (m1 = 0.1465), 955.51 ± 0.46 kg/m3 in data set [1] (m1 = 0.1701) and 956.83 ± 0.46 kg/m3 in data set [1] (m1 = 0.1898).

In the case of `CCCCCCn1cc[n+](C)c1.[Br-]` [3-hexyl-1-methyl-1H-imidazolium bromide] + CN(C)C=O, the mass density was determined as 945.76 ± 0.46 kg/m3 in data set [1] (m1 = 0.0245), 948.9 ± 0.46 kg/m3 in data set [1] (m1 = 0.0738) and 951.72 ± 0.46 kg/m3 in data set [1] (m1 = 0.1205).
